Like-named read-outs stand apart in the source and are kept apart here.
Legend:
SARS-CoV-2 Mpro = SARS-CoV-2 Mpro (Severe acute respiratory syndrome coronavirus 2, UniProt P0DTD1); test: SARS-CoV-2 Mpro enzymatic inhibition assay (fluorescence); type: biochemical
In short: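 A fluorescence readout (340 nm excitation, 490 nm emission) was taken after the substrate reaction ran 60 min at 30° C. Before substrate addition, E. coli-expressed protease and compound (3-fold dilutions, 10 doses, duplicates) sat together 30 min at room temperature. Percent inhibition was fitted by variable-slope nonlinear regression to give IC50.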

HCoV-229E Mpro = HCoV-229E Mpro (Human coronavirus 229E, UniProt P0C6X1); test: HCoV-229E Mpro enzymatic inhibition assay (fluorescence); type: biochemical
HCoV-229E Mpro, sequence (P0C6X1 2966-3267 limits assumed): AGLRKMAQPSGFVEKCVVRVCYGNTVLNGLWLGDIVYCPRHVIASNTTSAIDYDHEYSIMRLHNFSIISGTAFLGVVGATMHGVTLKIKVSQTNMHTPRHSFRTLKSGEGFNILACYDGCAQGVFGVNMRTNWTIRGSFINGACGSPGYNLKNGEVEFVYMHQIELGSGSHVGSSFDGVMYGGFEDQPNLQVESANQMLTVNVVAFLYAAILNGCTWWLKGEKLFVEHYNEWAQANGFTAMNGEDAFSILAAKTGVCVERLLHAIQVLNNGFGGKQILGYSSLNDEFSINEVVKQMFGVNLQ

HCoV-HKU1 Mpro = HCoV-HKU1 Mpro (Human coronavirus HKU1, UniProt P0C6X2); test: HCoV-HKU1 Mpro enzymatic inhibition assay (fluorescence); type: biochemical
HCoV-HKU1 Mpro, sequence (P0C6X2 3335-3637 limits assumed): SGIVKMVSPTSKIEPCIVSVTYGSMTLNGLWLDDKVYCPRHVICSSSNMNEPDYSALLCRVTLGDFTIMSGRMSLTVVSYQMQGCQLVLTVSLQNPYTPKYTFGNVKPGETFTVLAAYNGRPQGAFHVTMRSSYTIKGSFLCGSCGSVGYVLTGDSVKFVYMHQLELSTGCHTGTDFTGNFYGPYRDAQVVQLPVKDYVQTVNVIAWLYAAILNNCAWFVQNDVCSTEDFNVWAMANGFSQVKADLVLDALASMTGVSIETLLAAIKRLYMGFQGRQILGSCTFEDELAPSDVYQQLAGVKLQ
In short: (§1)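 Recombinant Mpro from E. coli was pre-incubated with compound (3-fold, 10-point dilutions, duplicates) for 30 min at room temperature, then fluorogenic peptide substrate was added and fluorescence read at Ex/Em 340/490 nm after 60 min at 30 °C. IC50 came from four-parameter fits of background-corrected inhibition.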

MERS Mpro = MERS Mpro (Middle East respiratory syndrome-related coronavirus, UniProt K9N7C7); test: biochemical; design: species or system MERS-CoV
MERS Mpro, sequence (K9N7C7 3248-3553 limits assumed): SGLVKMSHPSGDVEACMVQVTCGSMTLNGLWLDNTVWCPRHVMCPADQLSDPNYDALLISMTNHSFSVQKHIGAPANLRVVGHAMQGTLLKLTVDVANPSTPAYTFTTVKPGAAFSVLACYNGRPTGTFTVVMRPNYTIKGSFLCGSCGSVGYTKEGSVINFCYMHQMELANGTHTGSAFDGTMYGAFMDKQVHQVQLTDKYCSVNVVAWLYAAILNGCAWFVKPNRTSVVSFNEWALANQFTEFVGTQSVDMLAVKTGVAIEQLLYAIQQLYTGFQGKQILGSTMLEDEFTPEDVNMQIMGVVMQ

HCoV-NL63 Mpro = HCoV-NL63 Mpro (Human coronavirus NL63, UniProt P0C6X5); test: HCoV-NL63 Mpro enzymatic inhibition assay (fluorescence); type: biochemical
HCoV-NL63 Mpro, sequence (P0C6X5 2940-3242 limits assumed): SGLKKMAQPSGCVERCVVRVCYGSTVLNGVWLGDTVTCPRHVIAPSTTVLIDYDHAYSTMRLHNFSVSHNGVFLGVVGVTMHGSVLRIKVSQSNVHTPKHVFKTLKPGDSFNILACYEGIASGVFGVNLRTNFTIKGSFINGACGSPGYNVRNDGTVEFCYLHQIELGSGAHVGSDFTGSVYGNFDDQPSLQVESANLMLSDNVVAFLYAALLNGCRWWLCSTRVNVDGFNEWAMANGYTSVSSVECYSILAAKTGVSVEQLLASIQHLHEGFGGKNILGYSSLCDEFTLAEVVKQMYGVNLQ
In short: as §1

HCoV-OC43 Mpro = HCoV-OC43 Mpro (Human coronavirus OC43, UniProt P0C6X6); test: HCoV-OC43 Mpro enzymatic inhibition assay (fluorescence); type: biochemical
HCoV-OC43 Mpro, sequence (P0C6X6 3247-3549 limits assumed): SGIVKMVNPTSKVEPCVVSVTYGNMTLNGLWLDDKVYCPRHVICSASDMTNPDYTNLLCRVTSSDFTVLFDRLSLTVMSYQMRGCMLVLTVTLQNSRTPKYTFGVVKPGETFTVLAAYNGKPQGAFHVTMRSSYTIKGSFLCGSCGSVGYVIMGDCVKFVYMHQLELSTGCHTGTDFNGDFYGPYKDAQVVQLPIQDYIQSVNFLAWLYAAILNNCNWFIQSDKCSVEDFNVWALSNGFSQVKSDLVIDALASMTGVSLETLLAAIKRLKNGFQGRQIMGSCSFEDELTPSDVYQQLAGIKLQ
In short: as §1

SARS-CoV-1 Mpro = SARS-CoV-1 Mpro (Severe acute respiratory syndrome coronavirus, UniProt P0C6X7); test: biochemical
[1] = mean, 25 nM protein, 25 μM substrate, 30 min pre-incubation, 60 min at 30° C., read-out: Mpro_SARS-CoV-2 mean IC50

Structure (SMILES) | IC50 (SARS-CoV-2 Mpro) [nM] | IC50 (HCoV-229E Mpro) [nM] | IC50 (HCoV-HKU1 Mpro) [nM] | IC50 (MERS Mpro) [nM] | IC50 (HCoV-NL63 Mpro) [nM] | IC50 (HCoV-OC43 Mpro) [nM] | IC50 (SARS-CoV-1 Mpro) [nM] | IC50 (SARS-CoV-2 Mpro; [1]) [nM] | IC50 (HCoV-229E Mpro; mean, 50 nM protein, 12.5 μM substrate, 30 min pre-incubation, 60 min at 30° C., read-out: Mpro_229E mean IC50) [nM] | IC50 (HCoV-HKU1 Mpro; mean, 12.5 nM protein, 12.5 μM substrate, 30 min pre-incubation, 60 min at 30° C., read-out: Mpro_HKU1 mean IC50) [nM] | IC50 (HCoV-NL63 Mpro; mean, 50 nM protein, 12.5 μM substrate, 30 min pre-incubation, 60 min at 30° C., read-out: Mpro_NL63 mean IC50) [nM] | IC50 (HCoV-OC43 Mpro; mean, 25 nM protein, 12.5 μM substrate, 30 min pre-incubation, 60 min at 30° C., read-out: Mpro_OC43 mean IC50) [nM]
O=C[C@H](C[C@@H]1CCNC1=O)NC(=O)[C@@H]1CC(F)(F)CN1C(=O)c1cc2ccccc2[nH]1 [Compound 115, (S)-4,4-difluoro-1-(1H-Indole-2-carbonyl)-N—((S)-1-oxo-3-((S)-2-oxopyrrolidin-3-yl)propan-2-yl)pyrrolidine-2-carboxamide] | 102 | 53 | 15 | 303 | 105 | 87 | 250 | – | – | – | – | –
Cc1cccc2c1cc(C(=O)N1C[C@H]3[C@@H]([C@H]1C(=O)N[C@H](C=O)C[C@@H]1CCNC1=O)C3(C)C)n2C [Compound 118, (1R,2S,5S)-3-(1,4-Dimethylindole-2-carbonyl)-N-[(1S)-1-formyl-2-[(3S)-2-oxopyrrolidin-3-yl]ethyl]-6,6-dimethyl-3-azabicyclo[3.1.0]hexane-2-carboxamide] | 127 | 325 | 324 | 3290 | 1780 | 436 | 349 | – | – | – | – | –
Cc1cccc([C@@H](C)C(=O)N2C[C@H]3[C@@H]([C@H]2C(=O)N[C@H](C#N)C[C@@H]2CCNC2=O)C3(C)C)c1 [Compound 120] | – | – | – | 1130 | – | – | 196 | 151 | 299 | 193 | 1400 | 567
CO[C@@H]1C[C@@H](C(=O)N[C@H](C=O)C[C@@H]2CCNC2=O)N(C(=O)c2cc3ccccc3[nH]2)C1 [Compound 121, (2S,4R)-1-(1H-Indole-2-carbonyl)-4-methoxy-N—((S)-1-oxo-3-((S)-2-oxopyrrolidin-3-yl)propan-2-yl)pyrrolidine-2-carboxamide] | 159 | 152 | 546 | 2630 | 198 | 825 | 294 | – | – | – | – | –
CC1(C)[C@@H]2[C@@H](C(=O)N[C@H](C=O)C[C@@H]3CCNC3=O)N(C(=O)c3[nH]c4ccccc4c3-c3ccccc3)C[C@@H]21 [Compound 122, (1R,2S,5S)-6,6-Dimethyl-N—((S)-1-oxo-3-((S)-2-oxopyrrolidin-3-yl)propan-2-yl)-3-(3-phenyl-1H-indole-2-carbonyl)-3-azabicyclo[3.1.0]hexane-2-carboxamide] | 162 | 172 | 366 | 1550 | 1020 | 423 | 234 | – | – | – | – | –
CC1(C)[C@@H]2[C@@H](C(=O)N[C@H](C#N)C[C@@H]3CCNC3=O)N(C(=O)C3(c4cccc(Cl)c4)CC3)C[C@@H]21 [Compound 123, (1R,2S,5S)-3-(1-(3-Chlorophenyl)cyclopropanecarbonyl)-N—((S)-1-cyano-2-((S)-2-oxopyrrolidin-3-yl)ethyl)-6,6-dimethyl-3-azabicyclo[3.1.0]hexane-2-carboxamide] | – | 459 | 185 | 1180 | 2110 | 419 | 224 | 178 | – | – | – | –
CC1(C)[C@@H]2[C@@H](C(=O)N[C@H](C=O)C[C@@H]3CCNC3=O)N(C(=O)C3CCCC3)C[C@@H]21 [Compound 124, (1R,2S,5S)-3-(Cyclopentanecarbonyl)-6,6-dimethyl-N—((S)-1-oxo-3-((S)-2-oxopyrrolidin-3-yl)propan-2-yl)-3-azabicyclo[3.1.0]hexane-2-carboxamide] | – | 162 | 407 | 2000 | 2500 | 490 | 473 | 211 | – | – | – | –
O=C[C@H](C[C@@H]1CCNC1=O)NC(=O)[C@@H]1C[C@@H]2C[C@@H]2N1C(=O)c1cc2ccccc2[nH]1 [Compound 125, (1S,3S,5S)-2-(1H-Indole-2-carbonyl)-N—((S)-1-oxo-3-((S)-2-oxopyrrolidin-3-yl)propan-2-yl)-2-azabicyclo[3.1.0]hexane-3-carboxamide] | 228 | 116 | 154 | 916 | 218 | 284 | 685 | – | – | – | – | –
